Experiments:
[1] = system: RAW264.7 phosphorylated c-Jun (Ser63); assay: RAW264.7 phosphorylated c-Jun whole cell assay; format: cell-based; conditions: Mus musculus; cytological assay, activity level; lipopolysaccharide-activated RAW264.7 cells, phospho-c-Jun (Ser63) ELISA
Method in brief: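 Mouse RAW264.7 macrophages (2×10^5/well) were pretreated with compound for 30 min (0.2% DMSO), then stimulated with lipopolysaccharide for 1 h. Phospho-c-Jun (Ser63) in whole-cell lysates was quantified by sandwich ELISA.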

JNK1 kinase = molecular target: T1, JNK1 kinase (Homo sapiens, UniProt P45983); assay: JNK1 activity screening (time-resolved fluorometric HTRF kinase assay); format: biochemical; conditions: enzymatic assay, activity level
T1 construct: purchased Carna Biosciences 04-163

[2] = Stability observed during preparation; format: physicochemical; conditions: isolated compound; acid, base, water vapor
Description: (1R,3R,4R)-5-amino-2-methylcyclohexanol hydrochloride (57 mg, 0.342 mmol) and DIEA (132 mg, 1.026 mmol) were added to a solution of compound T041-3 (100 mg, 0.342 mmol) in isopropanol (3 mL) at room temperature with stirring. After stirring at room temperature for 3 h, the reaction was completed. The reaction mixture was added with water and extracted with ethyl acetate, and the organic phase was washed with saturated brine and dried over anhydrous sodium sulfate. The reaction mixture was concentrated under reduced pressure, purified by preparative high performance liquid chromatography (ammonium bicarbonate method) and lyophilized to give 40 mg of a white solid with a yield of 34%.

T1 sequence (P45983 whole entry): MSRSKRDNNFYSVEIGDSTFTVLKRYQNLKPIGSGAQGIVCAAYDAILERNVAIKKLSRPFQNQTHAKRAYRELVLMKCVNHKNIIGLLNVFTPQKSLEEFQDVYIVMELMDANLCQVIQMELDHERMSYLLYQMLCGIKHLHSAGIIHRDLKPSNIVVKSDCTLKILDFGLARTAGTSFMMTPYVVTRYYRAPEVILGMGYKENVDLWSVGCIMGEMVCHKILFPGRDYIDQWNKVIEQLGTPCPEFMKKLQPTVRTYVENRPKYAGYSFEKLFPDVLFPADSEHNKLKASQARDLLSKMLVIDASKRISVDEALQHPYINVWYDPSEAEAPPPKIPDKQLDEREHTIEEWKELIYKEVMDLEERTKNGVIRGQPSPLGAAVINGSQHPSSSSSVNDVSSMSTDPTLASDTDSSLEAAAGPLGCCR

Structure (SMILES) | IC50 [1] [nM] | IC50 (JNK1 kinase) [nM] | stability of the compound [2]
C[C@@H]1CC[C@@H](Nc2nc(OC(C)(C)C)ncc2Br)C[C@H]1O [Compound T041, (1R,2R,5R)-5-((5-bromo-2-(tert-butoxy)pyrimidin-4-yl)amino)-2-methylcyclohexan-l-ol] | > 1000 | 500 to 1000 | unstable due to susceptibility to acid, base, water vapor and the like
CC(C)C(=O)c1cnc(NC(C)(C)C)nc1N[C@@H]1CC[C@@H](C)[C@H](O)C1 [Compound T070, 1-(2-(tert-butylamino)-4-(((1R,3R,4R)-3-hydroxy-4-methylcyclohexyl)amino)pyrimidin-5-yl)-2-methylpropan-1-one] | > 1000 | 500 to 1000 | –
CC(=O)c1cnc(NC(C)(C)C(F)(F)F)nc1N[C@@H]1CC[C@@H](C)[C@H](O)C1 [Compound T071, 1-(4-(((1R,3R,4R)-3-hydroxy-4-methylcyclohexyl)amino)-2-((1,1,1-trifluoro-2-methylpropan-2-yl)amino)pyrimidin-5-yl)ethan-1-one] | > 1000 | 500 to 1000 | –
C[C@@H]1CC[C@@H](Nc2nc(Nc3ccc(S(C)(=O)=O)cc3)ncc2C(N)=O)C[C@H]1O [Compound T072, 4-(((1R,3R,4R)-3-hydroxy-4-methylcyclohexyl)amino)-2-((4-(methylsulfonyl)phenyl)amino) pyrimidine-5-carboxamide] | < 100 | < 100 | –
C[C@@H]1CC[C@@H](Nc2nc(Nc3ccc(N4CCN(C)CC4)cc3)ncc2C(N)=O)C[C@H]1O [Compound T073, 4-(((1R,3R,4R)-3-hydroxy-4-methylcyclohexyl)amino)-2-((4-(4-methylpiperazin-1-yl)phenyl)amino)pyrimidine-5-carboxamide] | 100 to 500 | < 100 | –
COc1ccc(CNc2ncc(C(N)=O)c(N[C@@H]3CC[C@@H](C)[C@H](O)C3)n2)cc1 [Compound T074, 4-(((1R,3R,4R)-3-hydroxy-4-methylcyclohexyl)amino)-2-((4-methoxybenzyl)amino)pyrimidine-5-carboxamide] | < 100 | < 100 | –
